# Test results published in patent US8188139B2, “Heterocyclic-substituted phenyl methanones” (Hoffman-La Roche Inc., priority 2005, dated 2012).
# Target: T1, mGlyT-1b (Mus musculus, UniProt P28571)
# T1 construct: host or cells: Flp-in-CHO
# T1 sequence (P28571 1-651 isoform P28571-2): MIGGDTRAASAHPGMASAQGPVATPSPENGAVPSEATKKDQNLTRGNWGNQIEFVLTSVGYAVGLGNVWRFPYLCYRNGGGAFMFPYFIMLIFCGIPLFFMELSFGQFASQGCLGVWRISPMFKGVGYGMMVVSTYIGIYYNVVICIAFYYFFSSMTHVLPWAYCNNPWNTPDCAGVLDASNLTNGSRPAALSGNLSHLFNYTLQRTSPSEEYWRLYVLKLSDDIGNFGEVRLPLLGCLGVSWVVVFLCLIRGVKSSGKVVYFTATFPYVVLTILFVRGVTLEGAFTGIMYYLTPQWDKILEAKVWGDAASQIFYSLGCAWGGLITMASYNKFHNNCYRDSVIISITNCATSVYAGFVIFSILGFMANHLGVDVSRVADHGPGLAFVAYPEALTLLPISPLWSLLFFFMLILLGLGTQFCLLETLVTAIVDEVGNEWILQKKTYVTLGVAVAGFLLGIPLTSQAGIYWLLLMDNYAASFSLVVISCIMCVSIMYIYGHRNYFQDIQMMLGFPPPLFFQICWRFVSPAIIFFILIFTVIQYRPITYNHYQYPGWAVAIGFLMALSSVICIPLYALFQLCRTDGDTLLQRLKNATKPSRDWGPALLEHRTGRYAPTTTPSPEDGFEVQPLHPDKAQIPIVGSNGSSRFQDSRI
# Assay: Glycine uptake inhibition assay (mGlyT-1b)
# Format: cell-based
# Settings: inhibition of [3H]-glycine uptake in Flp-in-CHO cells transfected with mGlyT-1b cDNA; 20 min preincubation at 22° C.; read-out: IC50 (μM) at GlyT-1
# Description: DMEM complete medium: Nutrient mixture F-12 (Gibco Life-technologies), fetal bovine serum (FBS) 5%, (Gibco life technologies), Penicillin/Streptomycin1% (Gibco life technologies), Hygromycin 0.6 mg/ml (Gibco life technologies), Glutamine 1 mM Gibco life technologies)
# Uptake buffer (UB): 150 mM NaCl, 10 mM Hepes-Tris, pH 7.4, 1 mM CaCl2, 2.5 mM KCl, 2.5 mM MgSO4, 10 mM (+) D-glucose.
# Flp-in™-CHO (Invitrogen Cat n^o R758-07) cells stably transfected with mGlyT1b cDNA.
# Glycine Uptake Inhibition Assay (mGlyT-1b)
# On day 1 mammalian cells, (Flp-in™-CHO), transfected with mGlyT-1b cDNA, were plated at the density of 40,000 cells/well in complete F-12 medium, without hygromycin in 96-well culture plates. On day 2, the medium was aspirated, and the cells were washed twice with uptake buffer (UB). The cells were then incubated for 20 min at 22° C. with either (i) no potential competitor, (ii) 10 mM non-radioactive glycine, (iii) a concentration of a potential inhibitor. A range of concentrations of the potential inhibitor was used to generate data for calculating the concentration of inhibitor resulting in 50% of the effect (e.g. IC50, the concentration of the competitor inhibiting glycine uptake of 50%). A solution was then immediately added containing [^3H]-glycine 60 nM (11-16 Ci/mmol) and 25 μM non-radioactive glycine. The plates were incubated with gentle shaking, and the reaction was stopped by aspiration of the mixture and washing (three times) with ice-cold UB. The cells were lysed with scintillation liquid, shaken 3 hours, and the radioactivity in the cells was counted using a scintillation counter.
row,SMILES,IC50 [µM]
1,"COc1cc2c(cc1Cl)CN(C(=O)c1cc(S(C)(=O)=O)ccc1OCC(C)C)C2 [Example 221, (5-Chloro-6-methoxy-1,3-dihydro-isoindol-2-yl)-(2-isobutoxy-5-methanesulfonyl-phenyl)-methanone]",0.022
2,"CNS(=O)(=O)c1ccc(OC(C)C)c(C(=O)N2Cc3ccc(C(F)(F)F)cc3C2)c1 [Example 43, 4-Isopropoxy-N-methyl-3-(5-trifluoromethyl-1,3-dihydro-isoindole-2-carbonyl)-benzenesulfonamide]",0.034
3,"C[C@H](Oc1ccc(S(C)(=O)=O)cc1C(=O)N1Cc2ccc(OCCC(F)(F)F)cc2C1)C(F)(F)F [Example 370, [5-Methanesulfonyl-2-((S)-2,2,2-trifluoro-1-methyl-ethoxy)-phenyl]-[5-(3,3,3-trifluoro-propoxy)-1,3-dihydro-isoindol-2-yl]-methanone]",0.047
4,"CCSc1cc2c(cc1Cl)CN(C(=O)c1cc(S(C)(=O)=O)ccc1O[C@H](C)C(F)(F)F)C2 [Example 59, (5-Chloro-6-ethylsulfanyl-1,3-dihydro-isoindol-2-yl)-[5-methanesulfonyl-2-((R)-2,2,2-trifluoro-1-methyl-ethoxy)-phenyl]-methanone]",0.036
5,"C[C@H](Oc1ccc(S(C)(=O)=O)cc1C(=O)N1Cc2ccc(-c3cccc(F)c3)cc2C1)C(F)(F)F [Example 334, [5-(3-Fluoro-phenyl)-1,3-dihydro-isoindol-2-yl]-[5-methanesulfonyl-2-(2,2,2-trifluoro-1-methyl-ethoxy)-phenyl]-methanone]",0.02
6,"CC(C)COc1ccc(S(C)(=O)=O)cc1C(=O)N1Cc2ccc(C3CCOCC3)cc2C1 [Example 270, (2-Isobutoxy-5-methanesulfonyl-phenyl)-[5-(tetrahydro-pyran-4-yl)-1,3-dihydro-isoindol-2-yl]-methanone]",0.035
7,"Cc1nc2c(cc1C(F)(F)F)CN(C(=O)c1cc(S(C)(=O)=O)ccc1O[C@@H](C)C(F)(F)F)C2 [Example 163, [5-Methanesulfonyl-2-((S)-2,2,2-trifluoro-1-methyl-ethoxy)-phenyl]-(2-methyl-3-trifluoromethyl-5,7-dihydro-pyrrolo[3,4-b]pyridin-6-yl)-methanone]",0.045
8,"CS(=O)(=O)c1ccc(OCC(F)(F)C(F)(F)F)c(C(=O)N2Cc3cc(F)c(N4CCOCC4)cc3C2)c1 [Example 372, (5-Fluoro-6-morpholin-4-yl-1,3-dihydro-isoindol-2-yl)-[5-methanesulfonyl-2-(2,2,2,3,3-pentafluoropropoxy)-phenyl]-methanone]",0.004
9,"CS(=O)(=O)c1ccc(-c2ccc(F)cc2)c(C(=O)N2Cc3ccc(C4CCOCC4)cc3C2)c1 [Example 283, (4′-Fluoro-4-methanesulfonyl-biphenyl-2-yl)-[5-(tetrahydro-pyran-4-yl)-1,3-dihydro-isoindol-2-yl]-methanone]",0.016
10,"C[C@H](Oc1ccc(S(C)(=O)=O)cc1C(=O)N1Cc2cc(F)c(N3CCOCC3)cc2C1)C(F)(F)F [Example 371, (5-Fluoro-6-morpholin-4-yl-1,3-dihydro-isoindol-2-yl)-[5-methanesulfonyl-2-((S)-2,2,2-trifluoro-1-methyl-ethoxy)-phenyl]-methanone]",0.006
11,"C[C@H](Oc1ccc(S(C)(=O)=O)cc1C(=O)N1Cc2cc(-c3ccc(F)cc3)cnc2C1)C(F)(F)F [Example 322, [3-(4-Fluoro-phenyl)-5,7-dihydro-pyrrolo[3,4-b]pyridin-6-yl]-[5-methanesulfonyl-2-((S)-2,2,2-trifluoro-1-methyl-ethoxy)-phenyl]-methanone]",0.012
12,"CS(=O)(=O)c1ccc(-c2ccc(F)cc2)c(C(=O)N2Cc3cc(C(F)(F)F)cnc3C2)c1 [Example 140, (4′-Fluoro-4-methanesulfonyl-biphenyl-2-yl)-(3-trifluoromethyl-5,7-dihydro-pyrrolo[3,4-b]pyridin-6-yl)-methanone]",0.036
13,"CC(C)(C)COc1ccc(S(C)(=O)=O)cc1C(=O)N1Cc2ccc(C3CCOCC3)cc2C1 [Example 273, [2-(2,2-Dimethyl-propoxy)-5-methane-sulfonyl-phenyl]-[5-(tetrahydro-pyran-4-yl)-1,3-dihydro-isoindol-2-yl]-methanone]",0.047
14,"C[C@H](Oc1ccc(S(C)(=O)=O)cc1C(=O)N1Cc2ccc(-c3ccccc3F)cc2C1)C(F)(F)F [Example 335, [5-(2-Fluoro-phenyl)-1,3-dihydro-isoindol-2-yl]-[5-methanesulfonyl-2-(2,2,2-trifluoro-1-methyl-ethoxy)-phenyl]-methanone]",0.031
15,"CS(=O)(=O)c1ccc(OCC(F)(F)C(F)(F)F)c(C(=O)N2Cc3cc(C(F)(F)F)cnc3C2)c1 [Example 157, [5-Methanesulfonyl-2-(2,2,3,3,3-pentafluoro-propoxy)-phenyl]-(3-trifluoromethyl-5,7-dihydro-pyrrolo[3,4-b]pyridin-6-yl)-methanone]",0.025
16,"CS(=O)(=O)c1ccc(-c2ccc(F)c(F)c2)c(C(=O)N2Cc3cc(C(F)(F)F)cnc3C2)c1 [Example 148, (3′,4′-Difluoro-4-methanesulfonyl-biphenyl-2-yl)-(3-trifluoromethyl-5,7-dihydro-pyrrolo[3,4-b]pyridin-6-yl)-methanone]",0.032
17,"C[C@H](Oc1ccc(S(C)(=O)=O)cc1C(=O)N1CCc2c(Br)cccc21)C(F)(F)F [Example 211, (4-Bromo-2,3-dihydro-indol-1-yl)-[5-methanesulfonyl-2-((S)-2,2,2-trifluoro-1-methyl-ethoxy)-phenyl]-methanone]",0.034
18,"CS(=O)(=O)c1ccc(-c2cccc(F)c2)c(C(=O)N2Cc3cc(Cl)c(N4CCOCC4)cc3C2)c1 [Example 255, (5-Chloro-6-morpho-lin-4-yl-1,3-dihydro-isoindol-2-yl)-(3′-fluoro-4-methane-sulfonyl-biphenyl-2-yl)-methanone]",0.017
19,"CS(=O)(=O)c1ccc(-c2ccccc2)c(C(=O)N2Cc3cc(Cl)c(N4CCOCC4)cc3C2)c1 [Example 252, (5-Chloro-6-morpho-lin-4-yl-1,3-dihydro-isoindol-2-yl)-(4-methanesulfonyl-biphenyl-2-yl)-methanone]",0.033
20,"C[C@H](Oc1ccc(S(C)(=O)=O)cc1C(=O)N1Cc2cc(Cl)c(OC3CCOCC3)cc2C1)C(F)(F)F [Example 375, [5-Chloro-6-(tetrahydro-pyran-4-yloxy)-1,3-dihydro-isoindol-2-yl]-[5-methanesulfonyl-2-((S)-2,2,2-trifluoro-1-methyl-ethoxy)-phenyl]-methanone]",0.015
21,"CC(C)COc1ccc(S(C)(=O)=O)cc1C(=O)N1Cc2cc(C(F)(F)F)cnc2C1 [Example 125, (2-Isobutoxy-5-methanesulfonyl-phenyl)-(3-trifluoromethyl-5,7-dihydro-pyrrolo[3,4-b]pyridin-6-yl)-methanone]",0.03
22,"C[C@H](Oc1ccc(S(C)(=O)=O)cc1C(=O)N1Cc2cc(Cl)c(C3CCOCC3)cc2C1)C(F)(F)F [Example 305, [5-Chloro-6-(tetra-hydro-pyran-4-yl)-1,3-dihydro-isoindol-2-yl]-[5-methane-sulfonyl-2-((S)-2,2,2-trifluoro-1-methyl-ethoxy)-phenyl]-methanone]",0.037
23,"COc1ccc2c(c1)CN(C(=O)c1cc(S(C)(=O)=O)ccc1OC(C)C)C2 [Example 74, (2-Isopropoxy-5-methanesulfonyl-phenyl)-(5-methoxy-1,3-dihydro-isoindol-2-yl)-methanone]",0.031
24,"CC(C)Oc1ccc(S(C)(=O)=O)cc1C(=O)N1Cc2cc(Cl)c(Cl)cc2C1 [Example 5, (5,6-Dichloro-1,3-dihydro-isoindol-2-yl)-(2-isopropoxy-5-methanesulfonyl-phenyl)-methanone]",0.042
25,"C[C@H](Oc1ccc(S(C)(=O)=O)cc1C(=O)N1Cc2ccc(OCC(F)(F)F)cc2C1)C(F)(F)F [Example 357, [5-Methanesulfonyl-2-((S)-2,2,2-trifluoro-1-methyl-ethoxy)-phenyl]-[5-(2,2,2-trifluoro-ethoxy)-1,3-dihydro-isoindol-2-yl]-methanone]",0.03
